Source: EP0509769B1, “Heterocyclic amides having HLE inhibiting activity” (ZENECA LIMITED, priority 1991, dated 1992)

Legend:
[1] = in vivo test (not specified further)
[2] = target: T1, human neutrophil elastase (HNE) (Homo sapiens, UniProt P08246); assay: Acute Hemorrhagic Assay: lung hemorrhage in hamsters after intratracheal HNE; format: in vivo, hamster; conditions: dose of 5 mg/kg by mouth, 30 min prior to administration of HNE; male Syrian hamsters
T1 construct: host or cells: exogenous human enzyme instilled into the trachea of male Syrian hamsters
T1 sequence (P08246 30-267): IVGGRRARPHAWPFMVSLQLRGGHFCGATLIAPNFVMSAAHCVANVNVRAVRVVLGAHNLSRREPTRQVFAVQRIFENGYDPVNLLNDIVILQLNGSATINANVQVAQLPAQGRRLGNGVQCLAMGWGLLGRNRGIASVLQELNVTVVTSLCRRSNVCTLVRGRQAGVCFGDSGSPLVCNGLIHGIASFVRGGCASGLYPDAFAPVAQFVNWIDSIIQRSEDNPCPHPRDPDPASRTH
From the text: This assay relies on monitoring only the amount of hemorrhage in the lung following intratracheal administration of human neutrophil elastase (HNE). Hemorrhage is quantified by disrupting erythrocytes recovered in lung lavage fluid and comparing that to dilutions of whole hamster blood. […] Four hours after enzyme administration, the animals are killed with an overdose of pentobarbital sodium, the thorax opened and the lungs and trachea removed. The excised lungs are lavaged with three changes of 2 mL normal saline via a tracheal cannula. The recovered lavages are pooled, the volumes (about 5 mL) are recorded and the lavages stored at 4 °C until assayed. For calculation of the amount of blood in each sample, the thawed lavages and a sample of whole hamster blood are sonicated to disrupt erythrocytes and appropriately diluted into individual wells of a 96-well microtiter plate. The optical densities (OD) of the disrupted lavages and blood samples are determined at 405 nm. The (µL blood equivalents) / (mL lavage) are determined by comparing the OD of the test samples with the OD of the standard curve prepared from whole hamster blood. The total µL equivalents of blood recovered is determined by multiplying recovered lavage volume by the (µL blood equivalents) / (mL lavage) for each sample.

SMILES | activity in an in vivo test [1] | inhibition of hemorrhage [2]
CC(C)C(NC(=O)Cn1c(-c2ccccc2)ccc(N)c1=O)C(=O)C(F)(F)F (stereo not drawn) [Example 49, 2-(3-Amino-2-oxo-6-phenyl-1,2-dihydro-1-pyridyl)-N-(3,3,3-trifluoro1-isopropyl-2-oxopropyl)acetamide] | activity | 
CC(C)C(NC(=O)Cn1c(-c2ccccc2)ccc(NC(=O)C(F)(F)F)c1=O)C(=O)C(F)(F)F (stereo not drawn) [Example 167, 2-(3-trifluoroacetylamino-2-oxo-6-phenyl-1,2-dihydro-1-pyridyl)-N-(3,3,3-trifluoro-1-isopropyl-2-oxopropyl)acetamide] |  | statistically significant inhibition of hemorrhage
CC(C)C(NC(=O)Cn1c(-c2ccccc2)ccc(NC(=O)Cc2ccc(N)cc2)c1=O)C(=O)C(F)(F)F.Cl (stereo not drawn) [Example 159, 2-[3-(4-Aminophenylacetylamino)-2-oxo-6-phenyl-1,2-dihydro-1-pyridyl]-N-(3,3,3-trifluoro-1-isopropyl-2-oxopropyl)acetamide hydrochloride] | activity | 
